Where two headings read alike, the source gives them in different places. Where only a bound is given, the exact number is not on record here.

Data set [1] in a line: Solubility in aqueous solutions. Type of data set: physicochemical. The note with it: read-out: concentration above which decreased solubility in aqueous solutions was displayed.
Data set [2] addresses T1, Recombinant human TG2 (Homo sapiens, UniProt P21980).
T1 construct: GST (with PSP protease site, plasmid pGST-PSP-rhTG2) (N, cleaved yes); made in house; host or cells: E. coli (BL21)
T1 sequence (P21980 1-687): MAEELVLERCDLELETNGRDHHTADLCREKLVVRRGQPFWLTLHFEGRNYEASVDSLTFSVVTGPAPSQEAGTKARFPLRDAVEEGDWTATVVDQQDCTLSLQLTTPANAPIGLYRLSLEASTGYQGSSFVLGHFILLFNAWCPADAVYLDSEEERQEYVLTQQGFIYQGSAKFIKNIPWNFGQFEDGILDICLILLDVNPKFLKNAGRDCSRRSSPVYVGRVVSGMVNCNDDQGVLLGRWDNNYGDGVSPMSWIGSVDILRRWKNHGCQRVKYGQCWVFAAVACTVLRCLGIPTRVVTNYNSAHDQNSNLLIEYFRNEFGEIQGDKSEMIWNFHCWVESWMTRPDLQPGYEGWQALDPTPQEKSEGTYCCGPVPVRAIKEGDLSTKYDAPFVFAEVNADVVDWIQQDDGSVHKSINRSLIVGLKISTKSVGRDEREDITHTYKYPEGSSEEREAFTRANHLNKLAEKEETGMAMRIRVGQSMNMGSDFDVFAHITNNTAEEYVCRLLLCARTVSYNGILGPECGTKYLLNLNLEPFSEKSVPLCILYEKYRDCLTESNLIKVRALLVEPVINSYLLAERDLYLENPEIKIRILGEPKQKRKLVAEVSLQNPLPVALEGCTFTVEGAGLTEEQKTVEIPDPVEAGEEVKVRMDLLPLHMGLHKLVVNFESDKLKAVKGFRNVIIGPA
The experiment in a line: rhTG2 inhibition assay, continuous chromogenic substrate AL5, Kitz and Wilson conditions. Particulars: for kinact / Ki: * compounds fitted to double reciprocal model, 25 °C, pH 6.9, 100 µM AL5; for kinact/KI: * double reciprocal model, ** lowest concentrations of saturation plot fitted to a linear model; for Ki: irreversible inhibition. The format is biochemical. An excerpt:
Relative to the original scaffold, we expected the potency of these novel chemical biology tools to decrease slightly, due to the additional bulk incorporated on the glutamate sidechain. Although we expected the sidechain moiety to be directed into bulk solvent, we were concerned that its mass and charge would disfavor the binding interaction. Therefore, we kinetically characterized these probes as rigorously as possible, in order to determine their relative affinity and reactivity. For most inhibitors we have made, including the parent inhibitor AA9 (Figure 1), we have been able to measure kinetic parameters under Kitz and Wilson conditions. This experimental approach is based on the use of a continuous activity assay and the measurement of first-order rate constants for the time-dependent inactivation of enzyme (see Figure 2A and Figures S1–S5 in Supplementary Materials). The dependence of these observed rate constants (kobs) on the inhibitor concentration divided by alpha ([I]/α) can then be fitted to a hyperbolic saturation model where the upper plateau represents the rate constant of inactivation (kinact), and the concentration providing half the rate constant of inactivation represents KI (Figure 2B). […] To compensate for this, the overall efficiency of the inhibitor (kinact/KI) can be derived from the slope of the linear region of the saturation plot (Figure 2C). To gauge the individual parameters, a double reciprocal fitting was also employed where KI can be calculated from the x-axis intercept and kinact can be calculated from the y-axis intercept (Figure 2D).
Recombinant human TG2 was expressed and purified using previously published protocols. The inhibition was monitored using a continuous chromogenic substrate AL5 [38] under Kitz and Wilson conditions. In brief, 125 µL of assay buffer composed of 111.11 mM MOPS, 15.56 CaCl2 pH 6.9 was added to a 1.5 mL Eppendorf tube to achieve final assay concentrations of 50 mM MOPS and […] CaCl2. To the tube was then added the respective concentration of inhibitor from an aqueous working stock (<5% DMSO final conditions). Various volumes of water were then added to ensure the final volumes were equal. The AL5 substrate was added to the Eppendorf tube as a 5 µL 5.56 mM solution in DMSO to obtain a final assay concentration of 100 µM. A 96-well polystyrene microplate then had 180 µL of the assay mixture added to it. The enzymatic reaction was finally initiated by addition of 20 µL 5 mU prediluted TG2 in assay buffer using a multichannel pipette. The reaction was monitored at 405 nm using a BioTek Synergy 4 plate reader for 20 min at 25 °C. A positive control with no inhibitor and a blank with no enzyme nor inhibitor were also included. The blank subtracted kinetic curves were then analyzed. The observed first-order rate constants of inactivation were gathered through a one-phase association model using the GraphPad software package. The rate constants were then fit to various models to elucidate the inhibition parameters. If saturation was achieved, they were fit to a saturation model versus the inhibitor concentration divided by alpha (where α=1+Substrate/Km ). A linear regression of the linear region of this saturation fitting was calculated to obtain a ratio of kinact/KI. A further double reciprocal model was used if saturation could not be observed due to the limitations in sensitivity of the assay or if solubility issues were present.

The target of data set [3] is T1, Recombinant human TG2. Set-up: method as in PMID 36846375. The note with it: previous lead compound, Figure 1; cited from earlier work.
A further data set deals with T2, GST-TG2 fusion protein (Homo sapiens, UniProt P21980).
T2 construct: made in house; host or cells: BL21 E. coli (crude lysate)
The experiment in a line: Pull-down of rhTG2 from E. coli lysate (CuAAC with desthiobiotin-PEG3-azide, streptavidin resin). The format is binding. The note with it: E. coli lysate overexpressing GST-rhTG2; elution with 4 mM biotin. On the procedure: As a proof of concept, previously described BL21 E. coli cells were transformed with a plasmid (pGST-PSP-rhTG2) to induce overexpression of recombinant human TG2 (rhTG2) as a GST fusion protein [47]. The bacterial cells were then lysed and exposed to the propargylated inhibitor 31 to allow for labelling. A subsequent CuAAC reaction was then performed in the same cell lysate to incorporate the desthiobitoin-PEG3-azide into labelled TG2. The lysate was then passed over streptavidin resin to isolate all proteins that had reacted with inhibitor 31. These proteins were then eluted from the resin using a solution of 4 mM biotin, and the eluant was analyzed by SDS-PAGE. […] This validates not only the TG2-selectivity of probe 31, but also the efficiency of the click reaction of the GST-TG2-31 adduct, allowing for the isolation of TG2 from cell lysate in a very mild manner.
A total of 400 µL of the aforementioned E. coli cell lysate combined with 133 µL of a solution of 75 µM 31 was added to a 1.5 mL Eppendorf tube. The labelling was allowed to occur for 25 min. Totals of 25 µL of a solution of 500 µM azide-PEG3-desthiobiotin 32 and 500 µM cupric sulfate in 20 mM HEPES at pH 8.0 were added to the tube. To initiate the click reaction, 100 µL of 150 µM sodium ascorbate solution in mQ H2O was added and gently rocked for 2.5 h at room temperature. […]

T2 sequence (P21980 with tags, fused parts or gaps): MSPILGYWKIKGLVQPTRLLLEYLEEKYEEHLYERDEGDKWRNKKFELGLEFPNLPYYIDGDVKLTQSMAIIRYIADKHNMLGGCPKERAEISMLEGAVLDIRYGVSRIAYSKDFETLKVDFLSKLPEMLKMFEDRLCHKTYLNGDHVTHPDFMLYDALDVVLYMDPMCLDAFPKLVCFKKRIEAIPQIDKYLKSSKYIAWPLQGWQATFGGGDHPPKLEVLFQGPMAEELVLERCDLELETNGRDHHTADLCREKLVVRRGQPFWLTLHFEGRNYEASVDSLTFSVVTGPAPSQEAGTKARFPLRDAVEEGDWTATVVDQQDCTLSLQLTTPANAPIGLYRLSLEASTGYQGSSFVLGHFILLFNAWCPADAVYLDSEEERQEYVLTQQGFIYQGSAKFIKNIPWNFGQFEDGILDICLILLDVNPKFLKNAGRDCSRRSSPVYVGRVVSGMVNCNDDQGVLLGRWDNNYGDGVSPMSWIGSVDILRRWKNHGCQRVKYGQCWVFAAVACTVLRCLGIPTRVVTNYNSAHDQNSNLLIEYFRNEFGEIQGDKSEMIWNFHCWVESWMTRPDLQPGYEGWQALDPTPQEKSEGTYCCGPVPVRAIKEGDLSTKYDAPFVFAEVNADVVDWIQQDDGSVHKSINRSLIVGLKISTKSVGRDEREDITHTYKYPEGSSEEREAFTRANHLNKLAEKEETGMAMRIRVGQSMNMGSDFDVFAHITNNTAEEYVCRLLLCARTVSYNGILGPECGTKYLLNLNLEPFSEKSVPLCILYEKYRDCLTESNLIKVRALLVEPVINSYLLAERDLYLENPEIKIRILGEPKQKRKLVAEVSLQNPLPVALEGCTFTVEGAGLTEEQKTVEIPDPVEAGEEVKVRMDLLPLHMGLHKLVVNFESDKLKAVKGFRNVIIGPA

By kinact is commonly meant the rate constant of inactivation at saturating inhibitor. The kinact/KI is the maximal inactivation rate divided by the concentration that gives half of it. In the case of `C=CC(=O)NCCCC[C@H](NC(=O)OCc1ccccc1)C(=O)N1CCN(C(=O)[C@H](CCC(=O)NCCCCCNC(=O)c2cc3ccc(N(CC)CC)cc3oc2=O)NC(=O)c2cccc3ccccc23)CC1` [Compound 22], the solubility in data set [1] is greater than 25 µM. In addition, at Recombinant human TG2 [2], the kinact was 0.004 s⁻¹, the inactivation efficiency (kinact/KI) is 3130 M⁻¹ s⁻¹ and the Ki was determined as 1300 ± 1100 nM.
Regarding `C=CC(=O)NCCCC[C@H](NC(=O)OCc1ccccc1)C(=O)N1CCN(C(=O)c2cccc3ccccc23)CC1` [AA9], the kinact/KI at Recombinant human TG2 [3] was 1670 M⁻¹ s⁻¹.
`C#CCNC(=O)CC[C@H](NC(=O)c1cccc2ccccc12)C(=O)N1CCN(C(=O)[C@H](CCCCNC(=O)C=C)NC(=O)OCc2ccccc2)CC1` [Compound 31]: the “proteins isolated by pull-down (TG2 selectivity)” value on GST-TG2 fusion protein is on record as “the only protein efficiently isolated in this experiment corresponds to the GST-TG2 fusion protein”. At Recombinant human TG2 [2], the inactivation rate constant (kinact) is 0.00767 s⁻¹, the second-order inactivation constant (kinact/KI) is 8280 M⁻¹ s⁻¹ and the Ki turned out to be 900 ± 500 nM.

Values taken from paper PMC10454375, “Cell-Impermeable Inhibitors Confirm That Intracellular Human Transglutaminase 2 Is Responsible for the Transglutaminase-Associated Cancer Phenotype” (International Journal of Molecular Sciences, 2023).
